Laboratory results as given in patent publication US20260317367A1, “SALTS INCLUDING CRYSTALLINE SALTS OF 25-HYDROXY-CHOLEST-5-EN-3-SULFATE AND METHODS FOR PREPARING SAME” (Durect Corporation, priority 2022, published 2026).
Counter-ions that a name gives are not always drawn.

Assays:
Format in all cases: physicochemical
[1] = Final pH of the solubility sample solutions in aqueous media; details: for pH of the solubility sample, 0.9% Sodium Chloride: 0.9% sodium chloride (blank 5.8); for pH of the solubility sample, 5% Dextrose: 5% dextrose (blank 4.7); for pH of the solubility sample, FaSSGF: FaSSGF (blank 1.5, 1.6); for pH of the solubility sample, FaSSIF: FaSSIF (blank 6.5, 6.5); for pH of the solubility sample, FeSSIF: FeSSIF (blank 4.9, 5.0); for pH of the solubility sample, Water: water (blank 6.3)
Method in brief: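 25HC3S salts shaken as excess-solid suspensions in aqueous media at room temperature (210 motions/min) for one day. Aliquots centrifuged at 12000 rpm for 12–15 min; clear supernatant assayed undiluted by HPLC.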

[2] = Solid-state chemical stability of 25HC3S salts at 2-8° C., 60° C. and 80° C. (HPLC assay and degradation products); details: for % Impurities, Total / % Impurities, 25-HC: ND = Not Detected; for % Impurities, 25-HC: 25-Hydroxy-Cholesterol; for % Recovery: vs 2-8° C.
Method in brief: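 Crystalline 25HC3S salts (~25 mg powder per vial) stored at 2-8° C. or 80° C., pulled at 3 and 6 weeks; some 3-week 2-8° C. vials moved to 60° C. for 1 week. Dissolved in 100% methanol (sonication/vortexing, centrifugation or dilution), then HPLC against 25HC3S sodium standards (0.75-1.25 mg/mL) for assay and degradants.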

[3] = Appearance (color, clumping, flowability) of stored 25HC3S salts
[4] = Angle of repose of 25HC3S salts; details: for Flow Property per USP<1174> Powder Flow: classification by angle of repose
Method in brief: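 About 2 g of salt powder was poured through a 7 mm inner-diameter tube into a 21.14 mm rubber O-ring, forming a cone of fixed diameter. Cone height was measured with calipers and the angle of repose was calculated from it. Flow was classified per USP<1174>.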

[5] = Thermogravimetric analysis (TGA), weight loss
Method in brief: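 Mettler-Toledo TGA/DSC3, calibrated with indium, tin and zinc, balance checked with calcium oxalate. Sample in a hermetically sealed aluminium pan with pierced lid, heated under nitrogen from ambient to 350° C at 10° C/min. Weight loss reported against sample temperature.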

[6] = 2-8° C., 3 wk, listed as 25HC3S meglumine
[7] = 60° C., 1 wk, listed as 25HC3S meglumine
[8] = 80° C., 3 wk, listed as 25HC3S meglumine
[9] = listed as 25HC3S tromethammonium
[10] = 2-8° C., 3 wk, listed as 25HC3S tromethammonium
[11] = 80° C., 3 wk, listed as 25HC3S tromethammonium
[12] = 80° C., 5 wk, listed as 25HC3S tromethammonium
[13] = 80° C., 5 wk, 50400 min, listed as 25HC3S tromethammonium
[14] = 2-8° C., 3 wk, listed as 25HC3S benzathine
[15] = 80° C., 3 wk, listed as 25HC3S benzathine
[16] = 80° C., 5 wk, 50400 min, listed as 25HC3S benzathine

Structure (SMILES): CC(CCCC(C)(C)O)C1CCC2C3CC=C4CC(OS(=O)(=O)O)CCC4(C)C3CCC12C (centres unmarked) [Salt #7]
- pH of the solubility sample, 0.9% Sodium Chloride ([1]; listed as 25HC3S meglumine): 7.2
- pH of the solubility sample, 5% Dextrose ([1]; listed as 25HC3S meglumine): 7.2
- pH of the solubility sample, FaSSGF [1]: 1.6
- pH of the solubility sample, FaSSIF ([1]; listed as 25HC3S meglumine): 6.5
- pH of the solubility sample, FeSSIF [1]: 5.0
- pH of the solubility sample, Water ([1]; listed as 25HC3S meglumine): 8.5
- Assay ([2]; 2-8° C., 3 wk, 30240 min, listed as 25HC3S meglumine): 98.3 % w/w
- % Impurities, Total [2, 6]: 0.9%
- % Impurities, 25-HC [2, 7]: 0.4%
- Physical and chemical solid-state stability (comments) ([2]; 60° C., 1 week, listed as 25HC3S Meglumine): Stable after 1 week at 60 °C
- Assay ([2]; 60° C., 1 wk (after 3 weeks at 2-8° C.), 10080 min, listed as 25HC3S meglumine, 10080 min): 104.6 % w/w
- % Recovery of 2-8° C./3 wk vs 60° C./1 wk ([2]; 60° C., 1 wk, 10080 min, listed as 25HC3S meglumine): 106.4%
- % Impurities, Total [2, 7]: 1.7%
- Physical and chemical solid-state stability (comments) ([2]; 80° C., 3 weeks, listed as 25HC3S Meglumine): totally decomposed after 3
- % Recovery ([2]; 80° C., 3 wk, 30240 min, listed as 25HC3S meglumine, 30240 min): 0.0%
- Assay ([2]; 80° C., 3 wk, 30240 min, listed as 25HC3S meglumine): 0.0 % w/w
- % Impurities, Total [2, 8]: 100.3%
- Stability after 1 week at 60° C. (in words) ([2]; solid state, 60° C., 1 week (after 3 weeks at 2-8° C.)): stable
- Stability after 3 weeks at 80° C. (in words) ([2]; solid state, 80° C., 3 weeks): totally decomposed
- Appearance [3, 6]: White, free flowing powder, no clumping
- Appearance ([3]; 60° C., 1 wk (after 3 weeks at 2-8° C.), listed as 25HC3S meglumine): White, free flowing powder, no clumping
- Appearance after 3 weeks at 80° C. ([3]; 80° C., 3 weeks): completely burned
- Appearance [3, 8]: Light brown, partially melted material
- Flow Property per USP<1174> Powder Flow ([4]; listed as 25HC3S meglumine): Fair - aid not needed
- Angle of Repose ([4]; listed as 25HC3S meglumine): 37.3 degrees
- Angle of Repose, Rounded Whole Number ([4]; listed as 25HC3S meglumine): 37 degrees
- Loss of moisture by TGA, starting with ambient ([5]; starting with ambient): about 3.2%

Structure (SMILES): CC(CCCC(C)(C)O)C1CCC2C3CC=C4CC(OS(=O)(=O)O)CCC4(C)C3CCC12C (centres unmarked) [Salt #8]
- pH of the solubility sample, 0.9% Sodium Chloride [1, 9]: 7.2
- pH of the solubility sample, 5% Dextrose [1, 9]: 7.2
- pH of the solubility sample, FaSSGF [1]: 1.6
- pH of the solubility sample, FaSSIF [1, 9]: 6.5
- pH of the solubility sample, FeSSIF [1, 9]: 4.9
- pH of the solubility sample, Water [1, 9]: 8.4
- Assay ([2]; 2-8° C., 3 wk, 30240 min, listed as 25HC3S tromethammonium): 99.4 % w/w
- % Impurities, Total [2, 10]: 0.9%
- Assay ([2]; 2-8° C., 5 wk, 50400 min, listed as 25HC3S tromethammonium): 105.4 % w/w
- % Impurities, Total ([2]; 2-8° C., 5 wk, listed as 25HC3S tromethammonium): 0.7%
- % Impurities, 25-HC [2, 10]: 0.1%
- % Impurities, 25-HC [2, 11]: 0.1%
- % Impurities, 25-HC [2, 12]: 2.1%
- Stressed stability at 80° C. (in words) ([2]; 80° C.): good, stressed stability
- Physical and chemical solid-state stability (comments) ([2]; 80° C., 3 weeks, listed as 25HC3S Tromethammonium): Stable after 3 weeks at 80 °C
- % Recovery ([2]; 80° C., 3 wk, 30240 min, listed as 25HC3S tromethammonium, 30240 min): 99.8%
- Assay ([2]; 80° C., 3 wk, 30240 min, listed as 25HC3S tromethammonium): 99.2 % w/w
- % Impurities, Total [2, 11]: 1.2%
- % Recovery, 2-8° C./5 wk vs 80° C./5 wk [2, 13]: 91.1%
- Assay [2, 13]: 96.0 % w/w
- % Impurities, Total [2, 12]: 12.3%
- Stability after 3 weeks at 80° C. (in words) ([2]; solid state, 80° C., 3 weeks): stable
- degraded at 840 h ([2]; solid state, 80° C., 5 weeks, read-out: Degradation based on % Recovery to the 2-8° C. control samples): ~9%
- Appearance [3, 10]: White, free flowing powder with clumping
- Appearance ([3]; 2-8° C., 5 wk): White, free flowing powder with clumping
- Appearance [3, 11]: White, free flowing powder with clumping
- Appearance ([3]; 80° C., 5 wk): White, free flowing powder with clumping
- Flow Property per USP<1174> Powder Flow [4, 9]: Fair - aid not needed
- Angle of Repose [4, 9]: 40.2 degrees
- Angle of Repose, Rounded Whole Number [4, 9]: 40 degrees
- Weight loss by TGA up to about 80° C. ([5]; up to about 80° C.): ~0.3%

Structure (SMILES): CC(CCCC(C)(C)O)C1CCC2C3CC=C4CC(OS(=O)(=O)O)CCC4(C)C3CCC12C (centres unmarked) [Salt #9]
- pH of the solubility sample, 0.9% Sodium Chloride ([1]; listed as 25HC3S benzathine): 8.2
- pH of the solubility sample, 5% Dextrose ([1]; listed as 25HC3S benzathine): 7.1
- pH of the solubility sample, FaSSGF [1]: 1.6
- pH of the solubility sample, FaSSIF ([1]; listed as 25HC3S benzathine): 6.5
- pH of the solubility sample, FeSSIF [1]: 5.0
- pH of the solubility sample, Water ([1]; listed as 25HC3S benzathine): 8.6
- Assay ([2]; 2-8° C., 3 wk, 30240 min, listed as 25HC3S benzathine): 87.6 % w/w
- % Impurities, Total [2, 14]: 64.0%
- Assay ([2]; 2-8° C., 5 wk, 50400 min, listed as 25HC3S benzathine): 77.1 % w/w
- % Impurities, Total ([2]; 2-8° C., 5 wk, listed as 25HC3S benzathine): 64.2%
- degradation by area normalization ([2]; 3 and 5 weeks, 2-8° C. and 80° C.): normalization were all approximately 64%-65% indicating that thermal
- Change of assay value (in words) ([2]; 3 weeks and 5 weeks, 2-8° C. and 80° C.): dropped at a similar rate
- assay drop (comments) ([2]; 3 weeks at 2-8° C. and 80° C. as well as after 5 weeks): The assay dropped at a similar rate after 3 weeks at 2-8 °C and 80 °C
- % Recovery ([2]; 80° C., 3 wk, 30240 min, listed as 25HC3S benzathine, 30240 min): 97.4%
- Assay ([2]; 80° C., 3 wk, 30240 min, listed as 25HC3S benzathine): 85.3 % w/w
- % Impurities, Total [2, 15]: 64.3%
- % Recovery, 2-8° C./5 wk vs 80° C./5 wk [2, 16]: 91.8%
- Assay [2, 16]: 70.8 % w/w
- % Impurities, Total ([2]; 80° C., 5 wk, listed as 25HC3S benzathine): 65.3%
- degraded ([2]; solid state, 3 weeks and 5 weeks, 2-8° C. and 80° C., read-out: Degradation by area normalization): 64 to 65%
- Appearance [3, 14]: White, free flowing powder with some
- Appearance ([3]; 2-8° C., 5 wk): White, free flowing powder with clumping
- Appearance [3, 15]: White, free flowing powder with clumping
- Appearance ([3]; 80° C., 5 wk): White, free flowing powder with clumping
- Flow Property per USP<1174> Powder Flow ([4]; listed as 25HC3S benzathine): Passable - may hang up
- Angle of Repose ([4]; listed as 25HC3S benzathine): 43.7 degrees
- Angle of Repose, Rounded Whole Number ([4]; listed as 25HC3S benzathine): 44 degrees
- Weight loss by TGA up to 200° C. ([5]; up to 200° C., listed as crystalline 25HC3S benzathine): 0.4%
